Results published in patent US20100285959A1, “HERBICIDAL MIXTURES” (priority 2006, published 2010).

Key:
yellow foxtail (SETLU) = test: Test 1 field trial, preemergence; assay type: in vivo, Setaria glauca; details: 56 DAA
Excerpt: Corn seeds (hybrid ‘Pioneer 34N43’) were planted in mid spring season, 3.8 cm deep in a silt loam soil having 4.6% organic matter and a pH of 6. Plots were 10.7 m long by 1.5 m wide with rows spaced 76 cm apart. Seeds were spaced 18 cm apart within the rows. The field was managed using conventional tillage practices. […] Results are summarized in Table 1 and are the means of the three replicates. […] Colby's Equation (Colby, S. R. “Calculating Synergistic and Antagonistic Responses of Herbicide Combinations,” Weeds, 15(1), pp 20-22 (1967)) calculates the expected additive effect of herbicidal mixtures, and for two active ingredients is of the form:
Pa+b=Pa+Pb−(PaPb/100) • wherein Pa+b is the percentage effect of the mixture expected from additive contribution of the individual components, • Pa is the observed percentage effect of the first active ingredient at the same use rate as in the mixture, and • Pb is the observed percentage effect of the second active ingredient at the same use rate as in the mixture.

common ragweed (AMBEL) = test: Test 5 field trial, postemergence; assay type: in vivo, Ambrosia artemisiifolia
Excerpt: (§1) Corn seeds (hybrid ‘Pioneer 38H69’) were planted in mid spring season, 5.1 cm deep in a silty clay loam soil having 3% organic matter and a pH of 6.5. Plots were 9.1 m long by 3.0 m wide with rows spaced 76 cm apart. The field was managed using conventional tillage practices. […] All treatments included a surfactant except glufosinate treatments, both alone and in combination. […] Results are summarized in Table 5 and are the means of the three replicates.

large crabgrass (DIGSA) = test: Test 5 field trial, postemergence; assay type: in vivo, Digitaria sanguinalis
Excerpt: as §1

[1] = tested on: Pennsylvania smartweed (POLPY); test: Test 6 field trial, postemergence; assay type: in vivo, Polygonum pensylvanicum
Excerpt: (§2) Corn seeds (hybrid ‘Pioneer 35Y62’) were planted in mid spring season, 3.8 cm deep in a silt loam soil having 4% organic matter and a pH of 5.8. Plots were 10.7 m long by 1.5 m wide with rows spaced 76 cm apart. Seeds were spaced 18 cm apart within the rows. The field was managed using conventional tillage practices. […] All treatments included a surfactant except glufosinate treatments, both alone and in combination. […] Results are summarized in Table 6 and are the means of the three replicates.

giant foxtail (SETFA) = test: Test 6 field trial, postemergence; assay type: in vivo, Setaria faberi
Excerpt: as §2

[2] = tested on: common lambsquarters (CHEAL); test: Test 8 field trial, preemergence; assay type: in vivo, Chenopodium album
Excerpt: Corn seeds (hybrid ‘Pioneer 31G96’) were planted in mid spring season, 3.8 cm deep in a clay loam soil having 2% organic matter and a pH of 6.6. Plots were 6.1 m long by 3.0 m wide with rows spaced 76 cm apart. Seeds were spaced 15 cm apart within the rows. The field was managed using conventional tillage practices. […] A few of the weed species could not be evaluated at every timing. […] Results are the means of the three replicates.

corn (ZEAMD) = test: Test 10 field trial, preemergence; assay type: in vivo, Zea mays ssp. indentata; details: hybrid Pioneer 33P65 RR, corn (Zea mays ssp. indentata), in vivo, 28 days after application
Excerpt: (§3) Corn seeds (hybrid ‘Pioneer 33P65 RR’) were planted in mid spring season, 2.5 cm deep in a silt loam soil. Plots were 9.1 m long by 3.0 m wide with rows spaced 76 cm apart. The field was managed using conventional tillage practices. […] Results are the means of the three replicates.

[3] = tested on: ivyleaf morningglory (IPOHE); test: Test 10 field trial, preemergence; assay type: in vivo, Ipomoea hederacea; details: 28 DAA
Excerpt: as §3

Surinam grass (BRADC) = test: Test 11 field trial, preemergence; assay type: in vivo, Brachiaria decumbens; parameters: scale not given here; details: alone or + atrazine 1500 or metolachlor 2500
Excerpt: (§4) Corn seeds (hybrid ‘Pioneer 3041’) were planted in mid spring season, 5 cm deep in a clay soil having 2.6% organic matter and a pH of 5.6. Plots were 8 m long by 1.5 m wide with rows spaced 80 cm apart. Seeds were spaced 15 cm apart within the rows. The field was managed using conventional tillage practices. […] Treatments consisted of Compound 2 or
(§5) Goosegrass was not evaluated 16 or 91 days after application.

alexandergrass (BRAPL) = test: Test 11 field trial, preemergence; assay type: in vivo, Brachiaria plantaginea; parameters: scale not given here; details: alone or + atrazine 1500 or metolachlor 2500
Excerpt: as §4, §5

[4] = tested on: tropical spiderwort (COMBE); test: Test 11 field trial, preemergence; assay type: in vivo, Commelina benghalensis; parameters: scale not given here; details: alone or + atrazine 1500 or metolachlor 2500
Excerpt: as §4, §5

[5] = tested on: Brazilian crabgrass (DIGHO); test: Test 11 field trial, preemergence; assay type: in vivo, Digitaria horizontalis; parameters: scale not given here; details: alone or + atrazine 1500 or metolachlor 2500
Excerpt: as §4, §5

[6] = g a.i./ha: Cpd 2 50, S-Metolachlor 1870
[7] = g a.i./ha: Cpd 2 100, Atrazine 1680, S-Metolachlor 1870
[8] = g a.i./ha: Cpd 2 150, S-Metolachlor 1870
[9] = 16 DAA, Cpd 2 30 g a.i./ha alone or with glufosinate 470 or glyphosate 1120
[10] = 16 DAA, Cpd 2 60 g a.i./ha alone or with atrazine 1120, glufosinate 470 or glyphosate 1120
[11] = 31 DAA, Cpd 2 30 g a.i./ha alone or with glufosinate 470 or glyphosate 1120
[12] = 31 DAA, Cpd 2 60 g a.i./ha alone or with atrazine 1120, glufosinate 470 or glyphosate 1120
[13] = 16 DAA, Cpd 2/Cpd 1 at 62 g a.i./ha
[14] = 16 DAA, Cpd 2/Cpd 1 at 125 g a.i./ha
[15] = 30 DAA, Cpd 2/Cpd 1 at 62 g a.i./ha
[16] = 30 DAA, Cpd 2/Cpd 1 at 125 g a.i./ha
[17] = 44 DAA, Cpd 2/Cpd 1 at 62 g a.i./ha
[18] = 44 DAA, Cpd 2/Cpd 1 at 125 g a.i./ha
[19] = 62 DAA, Cpd 2/Cpd 1 at 62 g a.i./ha
[20] = 62 DAA, Cpd 2/Cpd 1 at 125 g a.i./ha
[21] = 91 DAA, Cpd 2/Cpd 1 at 62 g a.i./ha
[22] = 91 DAA, Cpd 2/Cpd 1 at 125 g a.i./ha

COC(=O)c1nc(C2CC2)nc(N)c1Cl [Compound 2, methyl 6-amino-5-chloro-2-cyclopropyl-4-pyrimidinecarboxylate]
20%: POLPY Obs ([1]; 14 DAA, 30 g a.i./ha) | POLPY Obs ([1]; 28 DAA, 30 g a.i./ha) | IPOHE Obs [3, 8]
85%: AMBEL Obs (common ragweed (AMBEL); [9])
75: BRAPL Obs (alexandergrass (BRAPL); [16])
0: SETLU Obs (yellow foxtail (SETLU); [6]) | SETLU Obs (yellow foxtail (SETLU); [7]) | SETLU Obs (yellow foxtail (SETLU); [8]) | BRADC Obs (Surinam grass (BRADC); [17]) | BRADC Obs (Surinam grass (BRADC); [19]) | BRADC Obs (Surinam grass (BRADC); [20]) | BRADC Obs (Surinam grass (BRADC); [21]) | BRADC Obs (Surinam grass (BRADC); [22]) | BRAPL Obs (alexandergrass (BRAPL); [15]) | BRAPL Obs (alexandergrass (BRAPL); [17]) | BRAPL Obs (alexandergrass (BRAPL); [19]) | BRAPL Obs (alexandergrass (BRAPL); [20]) | BRAPL Obs (alexandergrass (BRAPL); [21]) | BRAPL Obs (alexandergrass (BRAPL); [22]) | COMBE Obs [4, 19] | COMBE Obs [4, 21] | DIGHO Obs [5, 13] | DIGHO Obs [5, 15] | DIGHO Obs [5, 17] | DIGHO Obs [5, 18] | DIGHO Obs [5, 19] | DIGHO Obs [5, 20] | DIGHO Obs [5, 21] | DIGHO Obs [5, 22]
40: BRADC Obs (Surinam grass (BRADC); [13]) | BRADC Obs (Surinam grass (BRADC); [15]) | BRAPL Obs (alexandergrass (BRAPL); [13]) | COMBE Obs [4, 13] | COMBE Obs [4, 15] | COMBE Obs [4, 17] | COMBE Obs [4, 20] | COMBE Obs [4, 22] | DIGHO Obs [5, 14] | DIGHO Obs [5, 16]
5%: IPOHE Obs [3, 7]
75%: CHEAL Obs ([2]; 19 DAA, g a.i./ha: Cpd 2 50, S-Metolachlor 1870)
83%: AMBEL Obs (common ragweed (AMBEL); [11])
68%: CHEAL Obs ([2]; 56 DAA, g a.i./ha: Cpd 2 50, S-Metolachlor 1870)
99%: AMBEL Obs (common ragweed (AMBEL); [12])
2%: DIGSA Obs (large crabgrass (DIGSA); [12])
40%: POLPY Obs ([1]; 14 DAA, 60 g a.i./ha) | POLPY Obs ([1]; 28 DAA, 60 g a.i./ha)
100%: CHEAL Obs ([2]; 19 DAA, g a.i./ha: Cpd 2 100, Atrazine 1680, S-Metolachlor 1870) | CHEAL Obs ([2]; 19 DAA, g a.i./ha: Cpd 2 150, S-Metolachlor 1870) | CHEAL Obs ([2]; 56 DAA, g a.i./ha: Cpd 2 100, Atrazine 1680, S-Metolachlor 1870) | CHEAL Obs ([2]; 56 DAA, g a.i./ha: Cpd 2 150, S-Metolachlor 1870)
0%: DIGSA Obs (large crabgrass (DIGSA); [9]) | DIGSA Obs (large crabgrass (DIGSA); [10]) | DIGSA Obs (large crabgrass (DIGSA); [11]) | SETFA Obs (giant foxtail (SETFA); 14 DAA, 30 g a.i./ha) | SETFA Obs (giant foxtail (SETFA); 14 DAA, 60 g a.i./ha) | SETFA Obs (giant foxtail (SETFA); 28 DAA, 30 g a.i./ha) | SETFA Obs (giant foxtail (SETFA); 28 DAA, 60 g a.i./ha) | ZEAMD Obs (corn (ZEAMD))
95%: AMBEL Obs (common ragweed (AMBEL); [10])
70: BRADC Obs (Surinam grass (BRADC); [16]) | BRAPL Obs (alexandergrass (BRAPL); [14])
60: BRADC Obs (Surinam grass (BRADC); [14]) | BRADC Obs (Surinam grass (BRADC); [18]) | BRAPL Obs (alexandergrass (BRAPL); [18]) | COMBE Obs [4, 14] | COMBE Obs [4, 16] | COMBE Obs [4, 18]
13%: IPOHE Obs [3, 6]
